Values after ≈ are worked out from the molar mass of the structure shown.
Assays:
Assay type in all cases: functional
[1] = test system: Staphylococcus aureus; experiment: Antibacterial activity against methicillin-sensitive Staphylococcus aureus 16-1 assessed as inhibition of bacterial growth by CLSI based micro broth double dilution method
[2] = test system: Pseudomonas aeruginosa; experiment: Antibacterial activity against Pseudomonas aeruginosa ATCC 27853 assessed as inhibition of bacterial growth by CLSI based micro broth double dilution method
[3] = test system: Enterococcus faecalis; experiment: Antibacterial activity against vancomycin-resistant Enterococcus faecalis ATCC 51575 assessed as inhibition of bacterial growth by CLSI based micro broth double dilution method
[4] = test system: Streptococcus pyogenes; experiment: Antibacterial activity against erythromycin-resistant Streptococcus pyogenes 12-1 assessed as inhibition of bacterial growth by CLSI based micro broth double dilution method
[5] = test system: Streptococcus pyogenes; experiment: Antibacterial activity against erythromycin-sensitive Streptococcus pyogenes ATCC 19615 assessed as inhibition of bacterial growth by CLSI based micro broth double dilution method
[6] = test system: Enterococcus faecalis; experiment: Antibacterial activity against vancomycin-sensitive Enterococcus faecalis 16-6 assessed as inhibition of bacterial growth by CLSI based micro broth double dilution method
[7] = test system: Klebsiella pneumoniae; experiment: Antibacterial activity against ESBL negative Klebsiella pneumoniae 7 assessed as inhibition of bacterial growth by CLSI based micro broth double dilution method
[8] = test system: Escherichia coli; experiment: Antibacterial activity against Escherichia coli 16-7 assessed as inhibition of bacterial growth by CLSI based micro broth double dilution method
[9] = test system: Klebsiella pneumoniae; experiment: Antibacterial activity against ESBL positive Klebsiella pneumoniae ATCC 700603 assessed as inhibition of bacterial growth by CLSI based micro broth double dilution method
[10] = test system: Staphylococcus aureus; experiment: Antibacterial activity against methicillin-sensitive Staphylococcus aureus ATCC 29213 assessed as inhibition of bacterial growth by CLSI based micro broth double dilution method
[11] = test system: Enterococcus faecalis; experiment: Antibacterial activity against vancomycin-resistant Enterococcus faecalis ATCC 51299 assessed as inhibition of bacterial growth by CLSI based micro broth double dilution method
[12] = test system: Staphylococcus epidermidis; experiment: Antibacterial activity against methicillin-sensitive Staphylococcus epidermidis 16-4 assessed as inhibition of bacterial growth by CLSI based micro broth double dilution method
[13] = test system: Streptococcus pneumoniae; experiment: Antibacterial activity against erythromycin-resistant Streptococcus pneumoniae 12-3 assessed as inhibition of bacterial growth by CLSI based micro broth double dilution method
[14] = test system: Pseudomonas aeruginosa; experiment: Antibacterial activity against Pseudomonas aeruginosa PAO1 assessed as inhibition of bacterial growth by CLSI based micro broth double dilution method
[15] = test system: Staphylococcus aureus; experiment: Antibacterial activity against methicillin-sensitive Staphylococcus aureus 15 assessed as inhibition of bacterial growth by CLSI based micro broth double dilution method
[16] = test system: Staphylococcus epidermidis; experiment: Antibacterial activity against methicillin-sensitive Staphylococcus epidermidis ATCC 12228 assessed as inhibition of bacterial growth by CLSI based micro broth double dilution method
[17] = test system: Enterococcus faecalis; experiment: Antibacterial activity against vancomycin-sensitive Enterococcus faecalis […] assessed as inhibition of bacterial growth by CLSI based micro broth double dilution method
[18] = test system: Escherichia coli; experiment: Antibacterial activity against ESBL-negative Escherichia coli ATCC 25922 assessed as inhibition of bacterial growth by CLSI based micro broth double dilution method
[19] = test system: Streptococcus pneumoniae; experiment: Antibacterial activity against erythromycin-sensitive Streptococcus pneumoniae ATCC 49619 assessed as inhibition of bacterial growth by CLSI based micro broth double dilution method
[20] = test system: Pseudomonas aeruginosa; experiment: Antibacterial activity against Pseudomonas aeruginosa 16-11 assessed as inhibition of bacterial growth by CLSI based micro broth double dilution method
[21] = test system: Escherichia coli; experiment: Antibacterial activity against ESBL-positive Escherichia coli ATCC 35218 assessed as inhibition of bacterial growth by CLSI based micro broth double dilution method
[22] = test system: Klebsiella pneumoniae; experiment: Antibacterial activity against ESBL negative Klebsiella pneumoniae 16-2 assessed as inhibition of bacterial growth by CLSI based micro broth double dilution method

## CC[C@H]1OC(=O)[C@@](C)(F)C(=O)[C@H](C)[C@@H](O[C@@H]2O[C@H](C)C[C@H](N(C)C)[C@H]2O)[C@@](C)(OC)C[C@@H](C)C(=O)[C@H](C)[C@H]2N(CCCN(C)c3ccnc4ccccc34)C(=O)O[C@]12C
[1]
  MIC: 0.5 µg/mL (≈ 0.603 µM)
[2]
  MIC: > 32 µg/mL
[3]
  MIC: > 32 µg/mL
[4]
  MIC: > 32 µg/mL
[5]
  MIC: 0.03 µg/mL (≈ 0.0362 µM)
[6]
  MIC: > 32 µg/mL
[7]
  MIC: > 32 µg/mL
[8]
  MIC: > 32 µg/mL
[9]
  MIC: > 32 µg/mL
[10]
  MIC: 0.5 µg/mL (≈ 0.603 µM)
[11]
  MIC: > 32 µg/mL
[12]
  MIC: 2 µg/mL (≈ 2.41 µM)
[13]
  MIC: 0.12 µg/mL (≈ 0.145 µM)
[14]
  MIC: > 32 µg/mL
[15]
  MIC: 0.5 µg/mL (≈ 0.603 µM)
[16]
  MIC: 0.25 µg/mL (≈ 0.302 µM)
[17]
  MIC: 0.25 µg/mL (≈ 0.302 µM)
[18]
  MIC: > 32 µg/mL
[19]
  MIC: 0.03 µg/mL (≈ 0.0362 µM)
[20]
  MIC: > 32 µg/mL
[21]
  MIC: > 32 µg/mL
[22]
  MIC: > 32 µg/mL

## CC[C@H]1OC(=O)[C@@](C)(F)C(=O)[C@H](C)[C@@H](O[C@@H]2O[C@H](C)C[C@H](N(C)C)[C@H]2O)[C@@](C)(OC)C[C@@H](C)C(=O)[C@H](C)[C@H]2N(CCCOc3ccnc4ccccc34)C(=O)O[C@]12C
[1]
  MIC: 0.5 µg/mL (≈ 0.613 µM)
[2]
  MIC: > 32 µg/mL
[3]
  MIC: > 32 µg/mL
[4]
  MIC: 16 µg/mL (≈ 19.6 µM)
[5]
  MIC: 0.25 µg/mL (≈ 0.306 µM)
[6]
  MIC: > 32 µg/mL
[7]
  MIC: > 32 µg/mL
[8]
  MIC: > 32 µg/mL
[9]
  MIC: > 32 µg/mL
[10]
  MIC: 1 µg/mL (≈ 1.23 µM)
[11]
  MIC: > 32 µg/mL
[12]
  MIC: 1 µg/mL (≈ 1.23 µM)
[13]
  MIC: 32 µg/mL (≈ 39.2 µM)
[14]
  MIC: > 32 µg/mL
[15]
  MIC: 1 µg/mL (≈ 1.23 µM)
[16]
  MIC: 0.5 µg/mL (≈ 0.613 µM)
[17]
  MIC: 0.5 µg/mL (≈ 0.613 µM)
[18]
  MIC: > 32 µg/mL
[19]
  MIC: 0.25 µg/mL (≈ 0.306 µM)
[20]
  MIC: > 32 µg/mL
[21]
  MIC: > 32 µg/mL
[22]
  MIC: > 32 µg/mL

## CC[C@H]1OC(=O)[C@@](C)(F)C(=O)[C@H](C)[C@@H](O[C@@H]2O[C@H](C)C[C@H](N(C)C)[C@H]2O)[C@@](C)(OC)C[C@@H](C)C(=O)[C@H](C)[C@H]2N(CCCN(C(=O)/C=C/c3ccccc3)c3ccnc4ccccc34)C(=O)O[C@]12C
[1]
  MIC: 0.5 µg/mL (≈ 0.529 µM)
[2]
  MIC: > 32 µg/mL
[3]
  MIC: > 32 µg/mL
[4]
  MIC: 8 µg/mL (≈ 8.46 µM)
[5]
  MIC: 0.5 µg/mL (≈ 0.529 µM)
[6]
  MIC: > 32 µg/mL
[7]
  MIC: > 32 µg/mL
[8]
  MIC: > 32 µg/mL
[9]
  MIC: 32 µg/mL (≈ 33.9 µM)
[10]
  MIC: 1 µg/mL (≈ 1.06 µM)
[11]
  MIC: > 32 µg/mL
[12]
  MIC: 1 µg/mL (≈ 1.06 µM)
[13]
  MIC: 0.5 µg/mL (≈ 0.529 µM)
[14]
  MIC: > 32 µg/mL
[15]
  MIC: 1 µg/mL (≈ 1.06 µM)
[16]
  MIC: 1 µg/mL (≈ 1.06 µM)
[17]
  MIC: 0.5 µg/mL (≈ 0.529 µM)
[18]
  MIC: > 32 µg/mL
[19]
  MIC: ≤ 0.016 µg/mL
[20]
  MIC: > 32 µg/mL
[21]
  MIC: > 32 µg/mL
[22]
  MIC: > 32 µg/mL

## CC[C@H]1OC(=O)[C@@](C)(F)C(=O)[C@H](C)[C@@H](O[C@@H]2O[C@H](C)C[C@H](N(C)C)[C@H]2O)[C@@](C)(OC)C[C@@H](C)C(=O)[C@H](C)[C@H]2N(CCCn3ccc(=O)c4ccccc43)C(=O)O[C@]12C
[1]
  MIC: 0.12 µg/mL (≈ 0.147 µM)
[2]
  MIC: > 32 µg/mL
[3]
  MIC: > 32 µg/mL
[4]
  MIC: > 32 µg/mL
[5]
  MIC: 0.03 µg/mL (≈ 0.0368 µM)
[6]
  MIC: > 32 µg/mL
[7]
  MIC: > 32 µg/mL
[8]
  MIC: > 32 µg/mL
[9]
  MIC: > 32 µg/mL
[10]
  MIC: 0.12 µg/mL (≈ 0.147 µM)
[11]
  MIC: > 32 µg/mL
[12]
  MIC: 0.25 µg/mL (≈ 0.306 µM)
[13]
  MIC: 0.25 µg/mL (≈ 0.306 µM)
[14]
  MIC: > 32 µg/mL
[15]
  MIC: 0.12 µg/mL (≈ 0.147 µM)
[16]
  MIC: 0.06 µg/mL (≈ 0.0735 µM)
[17]
  MIC: 0.06 µg/mL (≈ 0.0735 µM)
[18]
  MIC: 16 µg/mL (≈ 19.6 µM)
[19]
  MIC: ≤ 0.016 µg/mL
[20]
  MIC: > 32 µg/mL
[21]
  MIC: > 32 µg/mL
[22]
  MIC: > 32 µg/mL

## CC[C@H]1OC(=O)[C@@](C)(F)C(=O)[C@H](C)[C@@H](O[C@@H]2O[C@H](C)C[C@H](N(C)C)[C@H]2O)[C@@](C)(OC)C[C@@H](C)C(=O)[C@H](C)[C@H]2N(CCCN(Cc3ccccc3)c3ccnc4ccccc34)C(=O)O[C@]12C
[1]
  MIC: 1 µg/mL (≈ 1.1 µM)
[2]
  MIC: > 32 µg/mL
[3]
  MIC: > 32 µg/mL
[4]
  MIC: 16 µg/mL (≈ 17.7 µM)
[5]
  MIC: 0.25 µg/mL (≈ 0.276 µM)
[6]
  MIC: > 32 µg/mL
[7]
  MIC: > 32 µg/mL
[8]
  MIC: > 32 µg/mL
[9]
  MIC: > 32 µg/mL
[10]
  MIC: 1 µg/mL (≈ 1.1 µM)
[11]
  MIC: > 32 µg/mL
[12]
  MIC: 2 µg/mL (≈ 2.21 µM)
[13]
  MIC: 0.12 µg/mL (≈ 0.133 µM)
[14]
  MIC: > 32 µg/mL
[15]
  MIC: 1 µg/mL (≈ 1.1 µM)
[16]
  MIC: 0.25 µg/mL (≈ 0.276 µM)
[17]
  MIC: 2 µg/mL (≈ 2.21 µM)
[18]
  MIC: > 32 µg/mL
[19]
  MIC: ≤ 0.016 µg/mL
[20]
  MIC: > 32 µg/mL
[21]
  MIC: > 32 µg/mL
[22]
  MIC: > 32 µg/mL
